# From US9522911B2, “Crystalline forms of tricyclic compound acid salt or hydrate thereof, and method for making thereof” (Jeil Pharmaceutical Co., Ltd., priority 2012, dated 2016)
# Columns and labels:
# [1] = Stability: moisture content with respect to time in thermo-hygrostat (Karl Fisher); format: physicochemical; settings: 25° C. and 60% RH, opened Petri dish
# Procedure: To compare the stability of 10-ethoxy-8-(morpholinomethyl)-1,2,3,4-tetrahydrobenzo[h][1,6]naphthyridine-5(6H)-on dichloride dihydrate prepared in Example 1 and 10-ethoxy-8-(morpholinomethyl)-1,2,3,4-tetrahydrobenzo[h][1,6]naphthyridine-5(6H)-on dichloride anhydride prepared in Comparative Example 1, the following experiment was performed.
# 3.0 g of each of the compounds was put in a Petri dish, and the Petri dish was left in a thermo-hygrostat maintaining 25° C. and 60% RH with an opened state. The moisture content with respect to time was measured using a Karl Fisher apparatus and recorded. By measuring the change of the moisture content with respect to time under the above-described conditions, the stability of the dihydrate and that of the anhydride were compared. The results are illustrated in the following Table 1 and FIG. 1.
# [2] = Stability of crystalline vs amorphous compound by change of XRD diffraction pattern (with moisture content); format: physicochemical; settings: for Change of XRD diffraction pattern with respect to time (in words): X-ray diffraction analysis
# Procedure: For comparing the stability of the crystalline compound of Example 1 according to the present invention and the amorphous compound of Comparative Example 2, the following experiment was performed.
# The stability of each of the crystalline compound of Example 1 according to the present invention and the amorphous compound of Comparative Example 2 was measured by measuring the change of a diffraction pattern through X-ray diffraction analysis (XRD).
# For the amorphous compound of Comparative Example 2, accurate and specific XRD pattern of the amorphous type was not shown, however amorphous 10-ethoxy-8-(morpholinomethyl)-1,2,3,4-tetrahydrobenzo[h][1,6]naphthyridine-5(6H)-on dichloride obtained after freeze drying absorbs surrounding moisture during performing the XRD, thereby increasing the crystallinity and showing XRD peaks.
# Meanwhile, the moisture content of the compound of Comparative Example 2 was 0.4% immediately after drying, and was increased to 5.2% after measuring XRD.
SMILES,Change of the moisture content with respect to time (in words) [1],Moisture content ([1]; 30 min) [%],Moisture content ([1]; 1 h) [%],Moisture content ([1]; 2 h) [%],Moisture content ([1]; 1 day) [%],Moisture content ([1]; 2 days) [%],Moisture content ([1]; initial state) [%],Change of XRD diffraction pattern with respect to time (in words) [2],Moisture content ([2]; after measuring XRD) [%],Moisture content ([2]; immediately after drying) [%],Change of the moisture content with respect to time (in words) ([1]; dihydrate),"Moisture content ([1]; 30 min, dihydrate) [%]","Moisture content ([1]; 1 h, dihydrate) [%]","Moisture content ([1]; 2 h, dihydrate) [%]","Moisture content ([1]; 1 day, dihydrate) [%]","Moisture content ([1]; 2 days, dihydrate) [%]","Moisture content ([1]; initial state, dihydrate) [%]"
"CCOc1cc(CN2CCOCC2)cc2[nH]c(=O)c3c(c12)NCCC3 [Comparative Example 1, 10-ethoxy-8-(morpholinomethyl)-1,2,3,4-tetrahydrobenzo[h][1,6]naphthyridine-5(6H)-on dichloride anhydride]",increased within 30 minutes from the initial state,9.70,10.18,9.79,9.72,9.86,0.40,,,,,,,,,,
"CCOc1cc(CN2CCOCC2)cc2[nH]c(=O)c3c(c12)NCCC3.Cl.Cl [Comparative Example 2, 10-ethoxy-8-(morpholinomethyl)-1,2,3,4-tetrahydrobenzo[h][1,6]naphthyridine-5(6H)-on dichloride]",,,,,,,,crystallinity thereof is increased,5.2,0.4,,,,,,,
"CCOc1cc(CN2CCOCC2)cc2[nH]c(=O)c3c(c12)NCCC3 [Example 1, 10-ethoxy-8-(morpholinomethyl)-1,2,3,4-tetrahydrobenzo[h][1,6]naphthyridine-5(6H)-on dichloride dihydrate]",,,,,,,,constant data without change of the XRD diffraction pattern,,,constant,8.75,8.80,8.79,8.77,8.81,8.77
